ChEMBL document CHEMBL2157893, “A potent and orally active antagonist (SM-406/AT-406) of multiple inhibitor of apoptosis proteins (IAPs) in clinical development for cancer treatment” (J Med Chem, 2011)
pIC50, pKd, pKi: −log10 of the molar value.

Columns and labels:
[1] = target: T1, E3 ubiquitin-protein ligase XIAP (Homo sapiens, UniProt P98170); test: Competitive inhibition of human XIAP BIR3 domain expressed in Escherichia coli BL21(DE3) after 2 to 3 hrs by fluorescence polarization assay
SK-OV-3 = test: cells; details: Homo sapiens, SK-OV-3, 96 h
Plasma [2] = test: Half life in human MDA-MB-231 cells xenografted SCID mouse plasma at 10 mg/kg, iv administered as single dose; format: ADME, organism-based; parameters: dose 10 mg/kg, route intravenous; details: in vivo
[3] = Toxicity in human prostate epithelial cells assessed as induction of cell death at 10 uM after 48 hrs by trypan blue exclusion assay; format: cell-based
Plasma [4] = test: Half life in human MDA-MB-231 cells xenografted SCID mouse plasma at 30 mg/kg, po administered as single dose; format: ADME, organism-based; parameters: dose 30 mg/kg, route oral; details: in vivo
Plasma [5] = test: Oral bioavailability in human MDA-MB-231 cells xenografted SCID mouse plasma at 10 mg/kg administered as single dose; format: ADME, organism-based; details: in vivo
in vivo [6] = details: SCID, mouse, tumor, po, 30 mg/kg
[7] = Toxicity in human MCF12F cells assessed as induction of cell death at 10 uM after 48 hrs by trypan blue exclusion assay; format: cell-based
Plasma [8] = test: AUC (0 to t) in human MDA-MB-231 cells xenografted SCID mouse plasma at 30 mg/kg, po administered as single dose; format: ADME, organism-based; parameters: dose 30 mg/kg, route oral; details: in vivo
[9] = AUC (0 to t) in human MDA-MB-231 cells xenografted SCID mouse tumor at 100 mg/kg, po administered as single dose; format: ADME, organism-based, Neoplasm; parameters: dose 100 mg/kg, route oral
[10] = Inhibition of Cytochrome P450; format: ADME
in vivo [11] = details: SCID, mouse, tumor, iv, 10 mg/kg
[12] = Aqueous solubility of the compound; format: physicochemical; details: buffer
in vivo [13] = details: SCID, mouse, tumor, po, 10 mg/kg
[14] = Tmax in human MDA-MB-231 cells xenografted SCID mouse tumor at 100 mg/kg, po administered as single dose; format: ADME, organism-based, Neoplasm; parameters: dose 100 mg/kg, route oral
Plasma [15] = test: Half life in human MDA-MB-231 cells xenografted SCID mouse plasma at 100 mg/kg, po administered as single dose; format: ADME, organism-based; parameters: dose 100 mg/kg, route oral; details: in vivo
Canis familiaris = species on record: Canis familiaris; test: Toxicity in dog assessed as drug tolerability; format: organism-based, Canis lupus familiaris; details: in vivo
in vivo [16] = details: SCID, mouse, tumor, po, 100 mg/kg
[17] = Tmax in human MDA-MB-231 cells xenografted SCID mouse plasma at 10 mg/kg, po administered as single dose; format: ADME, organism-based; parameters: dose 10 mg/kg, route oral
Plasma [18] = test: AUC (0 to t) in human MDA-MB-231 cells xenografted SCID mouse plasma at 10 mg/kg, po administered as single dose; format: ADME, organism-based; parameters: dose 10 mg/kg, route oral; details: in vivo
MDA-MB-231 = test: cells; details: Homo sapiens, MDA-MB-231, 96 h
Plasma [19] = test: Oral bioavailability in human MDA-MB-231 cells xenografted SCID mouse plasma at 100 mg/kg administered as single dose; format: ADME, organism-based; details: in vivo
[20] = AUC (0 to t) in human MDA-MB-231 cells xenografted SCID mouse tumor at 30 mg/kg, po administered as single dose; format: ADME, organism-based, Neoplasm; parameters: dose 30 mg/kg, route oral
[21] = AUC (0 to t) in human MDA-MB-231 cells xenografted SCID mouse tumor at 10 mg/kg, po administered as single dose; format: ADME, organism-based, Neoplasm; parameters: dose 10 mg/kg, route oral
Plasma [22] = test: AUC (0 to t) in human MDA-MB-231 cells xenografted SCID mouse plasma at 100 mg/kg, po administered as single dose; format: ADME, organism-based; parameters: dose 100 mg/kg, route oral; details: in vivo
Mus musculus = test: Toxicity in human MDA-MB-231 cells xenografted in SCID mouse at 200 mg/kg, po administered daily for 5 days/week for 2 to 3 weeks; details: in vivo
[23] = AUC (0 to t) in human MDA-MB-231 cells xenografted SCID mouse tumor at 10 mg/kg, iv administered as single dose; format: ADME, organism-based, Neoplasm; parameters: dose 10 mg/kg, route intravenous
[24] = Tmax in human MDA-MB-231 cells xenografted SCID mouse tumor at 10 mg/kg, iv administered as single dose; format: ADME, organism-based, Neoplasm; parameters: dose 10 mg/kg, route intravenous
[25] = target: Baculoviral IAP repeat-containing protein 3 (Homo sapiens, UniProt Q13489); test: Competitive inhibition of human cIAP2 BIR3 domain expressed in Escherichia coli BL21(DE3) after 2 to 3 hrs by fluorescence polarization assay
Plasma [26] = test: AUC (0 to t) in human MDA-MB-231 cells xenografted SCID mouse plasma at 10 mg/kg, iv administered as single dose; format: ADME, organism-based; parameters: dose 10 mg/kg, route intravenous; details: in vivo
Plasma [27] = test: Oral bioavailability in human MDA-MB-231 cells xenografted SCID mouse plasma at 30 mg/kg administered as single dose; format: ADME, organism-based; details: in vivo
[28] = Tmax in human MDA-MB-231 cells xenografted SCID mouse tumor at 10 mg/kg, po administered as single dose; format: ADME, organism-based, Neoplasm; parameters: dose 10 mg/kg, route oral
Plasma [29] = test: Half life in human MDA-MB-231 cells xenografted SCID mouse plasma at 10 mg/kg, po administered as single dose; format: ADME, organism-based; parameters: dose 10 mg/kg, route oral; details: in vivo
[30] = Tmax in human MDA-MB-231 cells xenografted SCID mouse tumor at 30 mg/kg, po administered as single dose; format: ADME, organism-based, Neoplasm; parameters: dose 30 mg/kg, route oral
[31] = Tmax in human MDA-MB-231 cells xenografted SCID mouse plasma at 30 mg/kg, po administered as single dose; format: ADME, organism-based; parameters: dose 30 mg/kg, route oral
[32] = target: T2, Baculoviral IAP repeat-containing protein 2 (Homo sapiens, UniProt Q13490); test: Binding affinity to human cIAP1 BIR3 domain expressed in Escherichia coli BL21(DE3) assessed as dissociation constant after 2 to 3 hrs by fluorescence polarization assay
[33] = target: T1, E3 ubiquitin-protein ligase XIAP; test: Binding affinity to His6-tagged human XIAP BIR3 domain expressed in Escherichia coli BL21(DE3) assessed as dissociation constant after 2 to 3 hrs by fluorescence polarization assay
[34] = target: T2, Baculoviral IAP repeat-containing protein 2

## CN[C@@H](C)C(=O)N[C@H]1CN(C(=O)CC(C)C)CC[C@H]2CC[C@@H](C(=O)NC(c3ccccc3)c3ccccc3)N2C1=O [XEVINAPANT]
[1]
  pIC50: 6.65
  pKi: 7.18
SK-OV-3
  pIC50: 6.85
Plasma [2]
  t1/2: 3 h
[3]
  Activity: Non-toxic
Plasma [4]
  t1/2: 2.3 h
Plasma [5]
  F: 31%
In vivo [6]
  Cmax: 2400 ng/mL
[7]
  Activity: Non-toxic
Plasma [8]
  AUCt: 4.3 µg·h/mL
[9]
  AUC(0-t): 57300 ng·h/mL
[10]
  inhibition (INH): Not Active
In vivo [11]
  Cmax: 3600 ng/mL
[12]
  solubility: > 50 mg/mL
In vivo [13]
  Cmax: 260 ng/mL
[14]
  Tmax: 2 h
Plasma [15]
  t1/2: 5.4 h
Canis familiaris
  Activity: Non-toxic
In vivo [16]
  Cmax: 10800 ng/mL
[17]
  Tmax: 1 h
Plasma [18]
  AUCt: 1.2 µg·h/mL
MDA-MB-231
  pIC50: 6.84
Plasma [19]
  F: 46%
[20]
  AUC(0-t): 9600 ng·h/mL
[21]
  AUC(0-t): 1100 ng·h/mL
Plasma [22]
  AUCt: 17.4 µg·h/mL
Mus musculus
  Activity: Non-toxic
[23]
  AUC(0-t): 8300 ng·h/mL
[24]
  Tmax: 15 min
[25]
  pIC50: 7.66
  pKi: 8.29
Plasma [26]
  AUCt: 3.8 µg·h/mL
Plasma [27]
  F: 38%
[28]
  Tmax: 1 h
Plasma [29]
  t1/2: 2.4 h
[30]
  Tmax: 2 h
[31]
  Tmax: 2 h

## CN[C@@H](C)C(=O)N[C@H]1CN(C(=O)CC(C)C)CC[C@H]2CC[C@@H](C(=O)N[C@@H](c3ccccc3)c3cn(CCCCCCCCCCNC(=O)c4ccc(-c5c6ccc(=O)cc-6oc6cc(O)ccc56)c(C(=O)O)c4)nn3)N2C1=O
[32]
  pKd: 9.15
[33]
  pKd: 8.36

## CN[C@@H](C)C(=O)N[C@H]1CN(C(=O)CC(C)C)CC[C@H]2CC[C@@H](C(=O)N[C@@H](c3ccccc3)c3cn(CCCCCCCCCCNC(=O)CCCCCNC(=O)CCCC[C@@H]4SC[C@@H]5NC(=O)N[C@@H]54)nn3)N2C1=O
[34]
  pKi: > 9.00
